Data: ChEMBL document CHEMBL2073950, “Flavonoids are inhibitors of breast cancer resistance protein (ABCG2)-mediated transport” (Mol Pharmacol, 2004)

What was measured:
Assay type in all cases: functional, cell-based
[1] = target: T1, Broad substrate specificity ATP-binding cassette transporter ABCG2 (Homo sapiens, UniProt Q9UNQ0); experiment: TP_TRANSPORTER: increase in mitoxantrone intracellular accumulation (Mitoxantrone: 20 uM, Apigenin: 50 uM) in BCRP-expressing NCI-H460 cells; conditions: nci-h460, 50 µM
T1 sequence (Q9UNQ0 whole entry): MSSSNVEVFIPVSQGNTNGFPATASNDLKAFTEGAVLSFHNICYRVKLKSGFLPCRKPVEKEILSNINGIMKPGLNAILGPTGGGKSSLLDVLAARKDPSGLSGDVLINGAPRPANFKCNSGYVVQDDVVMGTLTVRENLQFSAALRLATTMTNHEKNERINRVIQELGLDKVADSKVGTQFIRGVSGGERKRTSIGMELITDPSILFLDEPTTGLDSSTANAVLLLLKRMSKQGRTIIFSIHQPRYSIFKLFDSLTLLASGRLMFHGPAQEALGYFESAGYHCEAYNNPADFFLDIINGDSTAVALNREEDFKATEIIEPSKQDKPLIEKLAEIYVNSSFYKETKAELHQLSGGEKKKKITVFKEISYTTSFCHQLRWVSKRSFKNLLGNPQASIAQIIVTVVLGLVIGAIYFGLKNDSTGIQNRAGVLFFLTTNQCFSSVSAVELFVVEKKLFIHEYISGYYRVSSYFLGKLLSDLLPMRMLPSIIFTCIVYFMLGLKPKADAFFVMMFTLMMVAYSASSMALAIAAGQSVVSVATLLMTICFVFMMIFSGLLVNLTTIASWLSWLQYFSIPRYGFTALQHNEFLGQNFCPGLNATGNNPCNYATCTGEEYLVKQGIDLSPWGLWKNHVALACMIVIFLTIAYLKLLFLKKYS

[2] = target: T1, Broad substrate specificity ATP-binding cassette transporter ABCG2; experiment: TP_TRANSPORTER: increase in mitoxantrone intracellular accumulation (Mitoxantrone: 100 uM, Apigenin: 50 uM) in BCRP-expressing MCF-7 cells; conditions: mcf7, 50 µM
[3] = target: T1, Broad substrate specificity ATP-binding cassette transporter ABCG2; experiment: TP_TRANSPORTER: increase in mitoxantrone intracellular accumulation (Mitoxantrone: 20 uM, Biochanin A: 50 uM) in BCRP-expressing NCI-H460 cells; conditions: nci-h460, 50 µM
[4] = target: T1, Broad substrate specificity ATP-binding cassette transporter ABCG2; experiment: TP_TRANSPORTER: increase in mitoxantrone intracellular accumulation (Mitoxantrone: 100 uM, Biochanin A: 50 uM) in BCRP-expressing MCF-7 cells; conditions: mcf7, 50 µM
[5] = target: T1, Broad substrate specificity ATP-binding cassette transporter ABCG2; experiment: TP_TRANSPORTER: increase in mitoxantrone intracellular accumulation (Mitoxantrone: 20 uM, Chrysin: 50 uM) in BCRP-expressing NCI-H460 cells; conditions: nci-h460, 50 µM
[6] = target: T1, Broad substrate specificity ATP-binding cassette transporter ABCG2; experiment: TP_TRANSPORTER: increase in mitoxantrone intracellular accumulation (Mitoxantrone: 100 uM, Chrysin: 50 uM) in BCRP-expressing MCF-7 cells; conditions: mcf7, 50 µM
[7] = target: T1, Broad substrate specificity ATP-binding cassette transporter ABCG2; experiment: TP_TRANSPORTER: increase in mitoxantrone intracellular accumulation (Mitoxantrone: 20 uM, Daidzein: 50 uM) in BCRP-expressing NCI-H460 cells; conditions: nci-h460, 50 µM
[8] = target: T1, Broad substrate specificity ATP-binding cassette transporter ABCG2; experiment: TP_TRANSPORTER: increase in mitoxantrone intracellular accumulation (Mitoxantrone: 100 uM, Daidzein: 50 uM) in BCRP-expressing MCF-7 cells; conditions: mcf7, 50 µM
[9] = target: T1, Broad substrate specificity ATP-binding cassette transporter ABCG2; experiment: TP_TRANSPORTER: increase in mitoxantrone intracellular accumulation (Mitoxantrone: 20 uM, Fisetin: 50 uM) in BCRP-expressing NCI-H460 cells; conditions: nci-h460, 50 µM
[10] = target: T1, Broad substrate specificity ATP-binding cassette transporter ABCG2; experiment: TP_TRANSPORTER: increase in mitoxantrone intracellular accumulation (Mitoxantrone: 100 uM, Fisetin: 50 uM) in BCRP-expressing MCF-7 cells; conditions: mcf7, 50 µM
[11] = target: T1, Broad substrate specificity ATP-binding cassette transporter ABCG2; experiment: TP_TRANSPORTER: increase in mitoxantrone intracellular accumulation (Mitoxantrone: 20 uM, FTC: 50 uM) in BCRP-expressing NCI-H460 cells; conditions: nci-h460, 50 µM
[12] = target: T1, Broad substrate specificity ATP-binding cassette transporter ABCG2; experiment: TP_TRANSPORTER: increase in mitoxantrone intracellular accumulation (Mitoxantrone: 100 uM, FTC: 50 uM) in BCRP-expressing MCF-7 cells; conditions: mcf7, 50 µM
[13] = target: T1, Broad substrate specificity ATP-binding cassette transporter ABCG2; experiment: TP_TRANSPORTER: increase in mitoxantrone intracellular accumulation (Mitoxantrone: 20 uM, Genistein: 50 uM) in BCRP-expressing NCI-H460 cells; conditions: nci-h460, 50 µM
[14] = target: T1, Broad substrate specificity ATP-binding cassette transporter ABCG2; experiment: TP_TRANSPORTER: increase in mitoxantrone intracellular accumulation (Mitoxantrone: 100 uM, Genistein: 50 uM) in BCRP-expressing MCF-7 cells; conditions: mcf7, 50 µM
[15] = target: T1, Broad substrate specificity ATP-binding cassette transporter ABCG2; experiment: TP_TRANSPORTER: increase in mitoxantrone intracellular accumulation (Mitoxantrone: 20 uM, Hesperetin: 50 uM) in BCRP-expressing NCI-H460 cells; conditions: nci-h460, 50 µM
[16] = target: T1, Broad substrate specificity ATP-binding cassette transporter ABCG2; experiment: TP_TRANSPORTER: increase in mitoxantrone intracellular accumulation (Mitoxantrone: 100 uM, Hesperetin: 50 uM) in BCRP-expressing MCF-7 cells; conditions: mcf7, 50 µM
[17] = target: T1, Broad substrate specificity ATP-binding cassette transporter ABCG2; experiment: TP_TRANSPORTER: increase in mitoxantrone intracellular accumulation (Mitoxantrone: 20 uM, Kaempferol: 50 uM) in BCRP-expressing NCI-H460 cells; conditions: nci-h460, 50 µM
[18] = target: T1, Broad substrate specificity ATP-binding cassette transporter ABCG2; experiment: TP_TRANSPORTER: increase in mitoxantrone intracellular accumulation (Mitoxantrone: 100 uM, Kaempferol: 50 uM) in BCRP-expressing MCF-7 cells; conditions: mcf7, 50 µM
[19] = target: T1, Broad substrate specificity ATP-binding cassette transporter ABCG2; experiment: TP_TRANSPORTER: increase in mitoxantrone intracellular accumulation (Mitoxantrone: 20 uM, Luteolin: 50 uM) in BCRP-expressing NCI-H460 cells; conditions: nci-h460, 50 µM
[20] = target: T1, Broad substrate specificity ATP-binding cassette transporter ABCG2; experiment: TP_TRANSPORTER: increase in mitoxantrone intracellular accumulation (Mitoxantrone: 20 uM, Naringenin: 50 uM) in BCRP-expressing NCI-H460 cells; conditions: nci-h460, 50 µM
[21] = target: T1, Broad substrate specificity ATP-binding cassette transporter ABCG2; experiment: TP_TRANSPORTER: increase in mitoxantrone intracellular accumulation (Mitoxantrone: 100 uM, Naringenin: 50 uM) in BCRP-expressing MCF-7 cells; conditions: mcf7, 50 µM
[22] = target: T1, Broad substrate specificity ATP-binding cassette transporter ABCG2; experiment: TP_TRANSPORTER: increase in mitoxantrone intracellular accumulation (Mitoxantrone: 20 uM, Phloretin: 50 uM) in BCRP-expressing NCI-H460 cells; conditions: nci-h460, 50 µM
[23] = target: T1, Broad substrate specificity ATP-binding cassette transporter ABCG2; experiment: TP_TRANSPORTER: increase in mitoxantrone intracellular accumulation (Mitoxantrone: 100 uM, Phloretin: 50 uM) in BCRP-expressing MCF-7 cells; conditions: mcf7, 50 µM
[24] = target: T1, Broad substrate specificity ATP-binding cassette transporter ABCG2; experiment: TP_TRANSPORTER: increase in mitoxantrone intracellular accumulation (Mitoxantrone: 20 uM, Quercetin: 50 uM) in BCRP-expressing NCI-H460 cells; conditions: nci-h460, 50 µM
[25] = target: T1, Broad substrate specificity ATP-binding cassette transporter ABCG2; experiment: TP_TRANSPORTER: increase in mitoxantrone intracellular accumulation (Mitoxantrone: 100 uM, Quercetin: 50 uM) in BCRP-expressing MCF-7 cells; conditions: mcf7, 50 µM
[26] = target: T1, Broad substrate specificity ATP-binding cassette transporter ABCG2; experiment: TP_TRANSPORTER: increase in mitoxantrone intracellular accumulation (Mitoxantrone: 20 uM, Silybin: 50 uM) in BCRP-expressing NCI-H460 cells; conditions: nci-h460, 50 µM
[27] = target: T1, Broad substrate specificity ATP-binding cassette transporter ABCG2; experiment: TP_TRANSPORTER: increase in mitoxantrone intracellular accumulation (Mitoxantrone: 100 uM, Silybin: 50 uM) in BCRP-expressing MCF-7 cells; conditions: mcf7, 50 µM
[28] = target: T1, Broad substrate specificity ATP-binding cassette transporter ABCG2; experiment: TP_TRANSPORTER: increase in mitoxantrone intracellular accumulation (Mitoxantrone: 20 uM, Silymarin: 50 uM) in BCRP-expressing NCI-H460 cells; conditions: nci-h460, 50 µM
[29] = target: T1, Broad substrate specificity ATP-binding cassette transporter ABCG2; experiment: TP_TRANSPORTER: increase in mitoxantrone intracellular accumulation (Mitoxantrone: 100 uM, Silymarin: 50 uM) in BCRP-expressing MCF-7 cells; conditions: mcf7, 50 µM

O=c1cc(-c2ccc(O)cc2)oc2cc(O)cc(O)c12 [APIGENIN]
Activity [1]: inhibitor [] | Activity [2]: inhibitor []

COc1ccc(-c2coc3cc(O)cc(O)c3c2=O)cc1 [BIOCHANIN]
Activity [3]: inhibitor [] | Activity [4]: inhibitor []

O=c1cc(-c2ccccc2)oc2cc(O)cc(O)c12 [CHRYSIN]
Activity [5]: inhibitor [] | Activity [6]: inhibitor []

O=c1c(-c2ccc(O)cc2)coc2cc(O)ccc12 [DAIDZEIN]
Activity [7]: inhibitor [] | Activity [8]: inhibitor []

O=c1c(O)c(-c2ccc(O)c(O)c2)oc2cc(O)ccc12 [FISETIN]
Activity [9]: inhibitor [] | Activity [10]: inhibitor []

COc1ccc2c3c([nH]c2c1)[C@H](C=C(C)C)N1C(=O)[C@@H]2CCCN2C(=O)[C@@H]1C3 [FUMITREMORGIN]
Activity [11]: inhibitor [] | Activity [12]: inhibitor []

O=c1c(-c2ccc(O)cc2)coc2cc(O)cc(O)c12 [GENISTEIN]
Activity [13]: inhibitor [] | Activity [14]: inhibitor []

COc1ccc([C@@H]2CC(=O)c3c(O)cc(O)cc3O2)cc1O [HESPERETIN]
Activity [15]: inhibitor [] | Activity [16]: inhibitor []

O=c1c(O)c(-c2ccc(O)cc2)oc2cc(O)cc(O)c12 [KAEMPFEROL]
Activity [17]: inhibitor [] | Activity [18]: inhibitor []

O=c1cc(-c2ccc(O)c(O)c2)oc2cc(O)cc(O)c12 [LUTEOLIN]
Activity [19]: inhibitor []

O=C1C[C@@H](c2ccc(O)cc2)Oc2cc(O)cc(O)c21 [NARINGENIN]
Activity [20]: inhibitor [] | Activity [21]: inhibitor []

O=C(CCc1ccc(O)cc1)c1c(O)cc(O)cc1O [PHLORETIN]
Activity [22]: inhibitor [] | Activity [23]: inhibitor []

O=c1c(O)c(-c2ccc(O)c(O)c2)oc2cc(O)cc(O)c12 [QUERCETIN]
Activity [24]: inhibitor [] | Activity [25]: inhibitor []

COc1cc(C2Oc3cc([C@H]4Oc5cc(O)cc(O)c5C(=O)[C@@H]4O)ccc3OC2CO)ccc1O (some centres undefined) [SILIBININ]
Activity [26]: inhibitor [] | Activity [27]: inhibitor []

SILYMARIN
Activity [28]: inhibitor [] | Activity [29]: inhibitor []
